Data from patent US8338108B2, “Agent for promoting the production of thioredoxin” (Kyoto University, priority 2006, dated 2012).

Tested on: A549 cells
Assay: Cytoprotective action to stimulation by cigarette smoke extract (LDH assay)
Type: cell-based, human
Conditions: NAC 0.1 mM, FIG. 2
Experimental: A549 cells were pre-incubated for 16 hours with addition of a test substance (0.01 U/mL) in a DMEM medium wherefrom thiol was removed. Incubation was conducted for 6 hours more after addition of a cigarette smoke extract […] and, after that, LDH in the supernatant liquid of the culture was measured by means of an LDH assay (Roche Diagnostics) and used as an index for viability of the cells. The cigarette smoke extract (CSE) was prepared using a cigarette smoke generator SG-200 (Shibata Kagaku). Thus, smoke of ten cigarettes (Kentucky Research Cigarette 2R4F) which was passed through 10 mL of DMEM wherefrom thiol was removed (10% HEPES was added thereto) was defined as 100% CSE and used after appropriately diluting to the concentrations which were suitable for the experiments.

CC(=O)N[C@@H](CS)C(=O)O [NAC, N-acetylcysteine]
cell injury by CSE, effect of the extract compared with NAC: identical
